Assay results reported in US20050043412A1, “Remedies for glaucoma comprising bunazosin and prostaglandins” (SANTEN PHARMACEUTICAL CO LTD, priority 2002, published 2005).
Where a name gives a salt, the structure may show the parent alone.

Test system: intraocular pressure of cynomolgus monkeys
Experiment: Effect on intraocular pressure in normal cynomolgus monkeys after topical instillation
Format: in vivo, cynomolgus monkeys (Macaca fascicularis)
Conditions: normal cynomolgus monkey, single eye, 20 μl instillation (Detantol 0.01% bunazosin hydrochloride; Xalatan 0.005% latanoprost; combination: Xalatan 5 minutes after Detantol); IOP measured 2, 4 and 6 hours after administration
Method: So as to study the utility of bunazosin in combination with prostaglandin, bunazosin and prostaglandin were administered in combination to cynomolgus monkeys (Macaca fascicularis), examining the effect on intraocular pressure. Latanoprost was used as prostaglandin.
For bunazosin administration, Detantol (trade mark) ophthalmic solution, which contains bunazosin hydrochloride at 0.01%, was used. For latanoprost administration, Xalatan (trade mark) ophthalmic solution, which contains latanoprost at 0.005%, was used.
Cynomolgus monkeys were divided into four groups, a group to be dosed with a vehicle (vehicle group), a group to be dosed with bunazosin (bunazosin group), a group to be dosed with latanoprost (latanoprost group) and a group to be dosed with bunazosin and latanoprost [(bunazosin+latanoprost) group].
• 1. For topical anesthesia, a drop of 0.4% oxybuprocain hydrochloride ophthalmic solution was instilled into a single eye of each normal cynomolgus monkey. Then, intraocular pressure was measured before drug administration. • 2. […] 2, 4 and 6 hours after the administration of these test compound solutions, one drop of 0.4% oxybuprocain hydrochloride eye drops was instilled for topical anesthesia, and the intraocular pressure was measured. The maximum reduction of intraocular pressure in each group was determined by the following formula. […]

Compound | Maximum reduction of intraocular pressure
CCCC(=O)N1CCCN(c2nc(N)c3cc(OC)c(OC)cc3n2)CC1 [Bunazosin, Bunazosin hydrochloride] | 1.9 mmHg
CC(C)OC(=O)CCC/C=C\C[C@@H]1[C@@H](CC[C@@H](O)CCc2ccccc2)[C@H](O)C[C@@H]1O [Latanoprost] | 2.6 mmHg
